Results on one substance are retold here after patent US20200338229A1, “ANTIMICROBIAL ADHESIVE DRESSINGS” (priority 2015, published 2020).

For series [1] the following is noted: cited from earlier work.
For series [2] the following is noted: in the silicone adhesive of this invention.
For series [3] the following is noted: in the presence of light; cited from earlier work.

Where two headings read alike, the source gives them in different places.

Regarding Polyhexamethylene biguanide [PHMB], the solubility result in series [1] (in oils and hydrocarbons and silicone elastomers) is recorded as “not soluble”. Moreover, the solubility entry in series [1] (in water, alcohols and glycols) is “soluble”. Besides, the stability to autoclaving result in series [2] (autoclaving at 121° C.) was “stable”. Also, the “stability to curing temperature” value in series [2] (curing temperature of 140° C.) is “stable”. Further, in series [3], the “pH range of stability” value is given as 4-10 pH and the “temperature up to which stable” value is “up to 80 °C”.
